Several values for one entry are separate records, joined by “and”; a condition that tells them apart may be missing. Equal values may be shown once. Read-outs that look alike come from different tables or passages of the source.
What was measured:
[1] = tested on: C. glabrata strains expressing WT and mutant Bdf1; experiment: Growth inhibition in liquid media, C. glabrata lab strains; conditions: for pEC50 growth inhibition: Fig 2C; for % Growth (OD at 600 nm): Fig 2F
Description: Growth on Liquid Media with C. glabrata Lab Strains: Cells were grown at 30 °C in SC+M+C‐U medium (SC medium with 5 mM methionine, 0.25 mM cysteine, without uracil) to an OD600 of 0.5–0.8. […] Plates were incubated at 30 °C and OD600 was measured using a Multiskan FC Microplate Photometer (Thermo Fisher).

[2] = target: T1, Bdf1‐SmBiT/H2A.Z‐LgBiT pair (Saccharomyces cerevisiae, UniProt P35817); experiment: NanoBiT assay; assay type: cell-based, S. cerevisiae; design: remaining activity: dose or concentration left out as unconfirmed
T1 construct: expressed in transfected cells; host or cells: S. cerevisiae (H2A.Z-LgBiT strain)
Description: (§1) Yeast strains were distributed in 96‐well microplates containing SC(MSG)‐U medium (SC‐U medium with 0.1% monosodium glutamate instead of ammonium sulfate as a nitrogen source) and grown at 30 °C. 40 µL of exponentially growing cells were transferred in white 96‐well half‐area microplates (ProxiPlate Plus, Greiner Bio‐One) previously filled with 40 µL per well of SC(MSG) containing 100 µM furimazine. The microplates were then incubated for 10 min in the dark before the luminescence signals were recorded using a microplate reader (Ensight, PerkinElmer). Luminescence measurements were performed for 1 s per well at a distance of 0.1 mm between the plate and the detector. The luminescence values were normalized with the optical density (OD600) of the corresponding cultures. For NanoBiT assays with BET inhibitors, yeast cultures were grown overnight at 30 °C in SC(MSG) medium in the presence of serial dilutions of 24c and I‐BET726. Overnight cultures were diluted 5 fold in SC(MSG) and incubated for 1 h before luminescence was recorded as previously indicated. Luminescence values for each condition were normalized using the average of the luminescence recorded for the Bdf1/Swc4 and Bmh1/Bmh2 controls.

[3] = tested on: C. glabrata strains (WT, pdr1∆ or PDR1 rescue); experiment: Growth assays to assess compound efflux; assay type: cell-based; conditions: for growth relative to Solvent = 100 (Figure S10B): compound 50 µM, three replicates
Description: Cells from a single colony were diluted in 0.85% NaCl before being counted using a Neubauer chamber. […] The effect of fluconazole was tested by titration on these strains under similar conditions.

[4] = target: C. auris Bdf1 BD1 (Candidozyma auris (Candida auris), UniProt A0AAW0VEM6); experiment: HTRF assay, inhibition of H4ac4 peptide binding
[5] = tested on: Bmh1/Bmh2; experiment: NanoBiT assay, control pair; assay type: cell-based, S. cerevisiae; design: Normalized nanoBiT signal: unit of the concentration uncertain; conditions: for Normalized nanoBiT signal: Bmh1-LgBiT, Bmh2-SmBiT, Fig 4C
Description: as §1

[6] = tested on: HeLa cells; conditions: highest concentration tested (300 µM); 24 h
Description: Cytotoxicity assays were performed as described^[ [1] ^] with minor changes. Proliferation of human cells was assessed using an MTT colorimetric assay (Cell Proliferation Kit I, Roche). HeLa (epithelial cells, ATCC number CCL‐2) and IMR90 (primary fibroblasts cells, ATCC number CCL‐186) cells were cultured in humidified atmosphere (37 °C and 5% CO2) in DMEM medium containing 10% heat inactivated fetal calf serum and 2 mM glutamine. […] Plates were incubated at 37 °C and 5% CO2 for 24 h before adding 10 mL of MTT labelling reagent (final concentration 0.5 mg mL^−1) to each well. After incubating for a further 4 h, 100 µL of the solubilization solution were added in each well. Plates were allowed to stand overnight in the incubator before measuring the absorbance at 570 nm and at 690 nm in a ClarioStar plate reader. The values of A570–A690 nm were normalized relative to that obtained with vehicle (0.2% DMSO, 0.8% ethanol) and plotted against compound concentration.

[7] = target: C. auris Bdf1 BD2 (Candidozyma auris (Candida auris), UniProt A0AAW0VEM6); experiment: HTRF assay, inhibition of H4ac4 peptide binding
Chain of C. auris Bdf1 BD2 (A0AAW0VEM6 entry or part of it): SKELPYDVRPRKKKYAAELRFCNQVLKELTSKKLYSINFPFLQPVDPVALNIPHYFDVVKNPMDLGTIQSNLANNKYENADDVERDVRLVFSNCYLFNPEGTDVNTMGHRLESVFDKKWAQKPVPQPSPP

Chain of C. auris Bdf1 BD1 (A0AAW0VEM6 entry or part of it): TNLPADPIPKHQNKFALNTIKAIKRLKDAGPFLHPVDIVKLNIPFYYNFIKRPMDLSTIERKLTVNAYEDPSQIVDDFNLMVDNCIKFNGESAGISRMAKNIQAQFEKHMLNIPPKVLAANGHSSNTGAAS
T1 sequence (P35817 whole entry): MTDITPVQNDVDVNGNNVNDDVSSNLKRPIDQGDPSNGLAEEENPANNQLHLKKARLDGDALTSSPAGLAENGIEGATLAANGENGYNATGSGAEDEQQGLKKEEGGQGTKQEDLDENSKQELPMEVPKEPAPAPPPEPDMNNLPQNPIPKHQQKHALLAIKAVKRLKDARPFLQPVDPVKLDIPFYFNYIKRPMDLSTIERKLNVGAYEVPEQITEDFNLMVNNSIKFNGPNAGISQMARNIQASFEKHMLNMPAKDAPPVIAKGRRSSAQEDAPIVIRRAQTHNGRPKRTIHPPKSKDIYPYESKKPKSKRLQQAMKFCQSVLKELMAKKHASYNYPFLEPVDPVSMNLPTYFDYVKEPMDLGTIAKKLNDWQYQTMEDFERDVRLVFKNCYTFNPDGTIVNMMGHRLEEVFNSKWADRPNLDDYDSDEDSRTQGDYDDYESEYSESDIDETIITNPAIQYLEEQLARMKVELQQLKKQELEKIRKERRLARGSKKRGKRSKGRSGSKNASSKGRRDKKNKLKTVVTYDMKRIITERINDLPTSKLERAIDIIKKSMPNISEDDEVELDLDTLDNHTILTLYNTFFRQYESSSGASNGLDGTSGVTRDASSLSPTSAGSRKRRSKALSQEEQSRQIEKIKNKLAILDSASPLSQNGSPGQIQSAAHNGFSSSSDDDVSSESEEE

SMILES: Cc1ccc(-c2nnc(C)c(NCc3ccc(C)o3)n2)cc1 [Compound 24c, 6‐methyl‐N‐((5‐methylfuran‐2‐yl)methyl)‐3‐(p‐tolyl)‐1,2,4‐triazin‐5‐amine]
- pEC50 growth inhibition ([1]; strain BD1 Y-F, single experiments Exp1-3): 4.034 and 3.821
- pEC50 growth inhibition ([1]; strain BD2 Y-F, single experiments Exp1-3): 4.481 and 4.395
- pEC50 (WT BDF1) ([1]; Fig 2D, WT C. glabrata, single experiments Exp1-3): 4.014 and 4.016
- % Growth (OD at 600 nm) ([1]; WT BDF1, 6.25 microM): 98% and 99% and 101%
- % Growth (OD at 600 nm) ([1]; WT BDF1, 12.5 microM): 95% and 97% and 99%
- % Growth (OD at 600 nm) ([1]; WT BDF1, 25 microM): 88% and 91% and 95%
- % Growth (OD at 600 nm) ([1]; WT BDF1, 50 microM): 65% and 71% and 69%
- % Growth (OD at 600 nm) ([1]; WT BDF1, 100 microM): 44% and 45% and 46%
- % Growth (OD at 600 nm) ([1]; bdf1-bd1Y166F, 6.25 microM): 99% and 101% and 98%
- % Growth (OD at 600 nm) ([1]; bdf1-bd1Y166F, 12.5 microM): 102% and 92% and 98%
- % Growth (OD at 600 nm) ([1]; bdf1-bd1Y166F, 25 microM): 92% and 82% and 97%
- % Growth (OD at 600 nm) ([1]; bdf1-bd1Y166F, 50 microM): 88% and 74% and 81%
- % Growth (OD at 600 nm) ([1]; bdf1-bd1Y166F, 100 microM): 50% and 44% and 56%
- % Growth (OD at 600 nm) ([1]; bdf1-bd1Δ, 6.25 microM): 98% and 99% and 93%
- % Growth (OD at 600 nm) ([1]; bdf1-bd1Δ, 12.5 microM): 93% and 98% and 97%
- % Growth (OD at 600 nm) ([1]; bdf1-bd1Δ, 25 microM): 88% and 86% and 96%
- % Growth (OD at 600 nm) ([1]; bdf1-bd1Δ, 50 microM): 78% and 74% and 87%
- % Growth (OD at 600 nm) ([1]; bdf1-bd1Δ, 100 microM): 50% and 43% and 61%
- % Growth (OD at 600 nm) ([1]; bdf1-bd2Y343F, 6.25 microM): 89% and 90% and 88%
- % Growth (OD at 600 nm) ([1]; bdf1-bd2Y343F, 12.5 microM): 80% and 76% and 84%
- % Growth (OD at 600 nm) ([1]; bdf1-bd2Y343F, 25 microM): 68% and 61% and 66%
- % Growth (OD at 600 nm) ([1]; bdf1-bd2Y343F, 50 microM): 40% and 46%
- % Growth (OD at 600 nm) ([1]; bdf1-bd2Y343F, 100 microM): 20% and 22%
- % Growth (OD at 600 nm) ([1]; bdf1-bd2Δ, 6.25 microM): 68% and 85%
- % Growth (OD at 600 nm) ([1]; bdf1-bd2Δ, 12.5 microM): 64% and 70% and 59%
- % Growth (OD at 600 nm) ([1]; bdf1-bd2Δ, 25 microM): 40% and 63% and 41%
- % Growth (OD at 600 nm) ([1]; bdf1-bd2Δ, 50 microM): 30% and 38% and 23%
- %Growth ([1]; Fig 3D, 50 µM, WT BDF1-flag, Exp 1-3): 54.5% and 57.2% and 54.2%
- EC50 ([1]; Nakaseomyces glabratus, read-out: EC50 (μM) growth inhibition, strain WT BDF1 (both BDs active)): 90 µM
- EC50 ([1]; Nakaseomyces glabratus, read-out: EC50 (μM) growth inhibition, strain bdf1-Y166F (active BD: BD2)): ~100 µM
- EC50 ([1]; Nakaseomyces glabratus, read-out: EC50 (μM) growth inhibition, strain bdf1-Y343F (active BD: BD1)): 36.6 ± 33 µM
- EC50 ([1]; Nakaseomyces glabratus, read-out: EC50 (μM) growth inhibition, strain bdf1-bd1Δ (active BD: BD2)): ~100 µM
- EC50 ([1]; Nakaseomyces glabratus, read-out: EC50 (μM) growth inhibition, strain bdf1-bd2Δ (active BD: BD1)): 22.7 ± 7.9 µM
- EC50 ([1]; Nakaseomyces glabratus, read-out: pEC50 (WT BDF1), Fig 2D (converted), WT C. glabrata, single experiments Exp1-3): 86.5 µM
- EC50 ([1]; Nakaseomyces glabratus, read-out: pEC50 growth inhibition, Fig 2C (converted), strain BD1 Y-F, single experiments Exp1-3): 107 µM
- EC50 ([1]; Nakaseomyces glabratus, read-out: pEC50 growth inhibition, Fig 2C (converted), strain BD2 Y-F, single experiments Exp1-3): 36.4 µM
- EC50 ([1]; read-out: EC50 (μM) growth inhibition, strain WT BDF1 (both BDs active)): 93 µM
- remaining activity at 195.3 µM ([2]; Bdf1-SmBiT, Htz1-LgBiT, 0.1953 mM, Fig 4C, read-out: Normalized nanoBiT signal): 99%
- remaining activity at 390.6 µM ([2]; Bdf1-SmBiT, Htz1-LgBiT, 0.3906 mM, Fig 4C, read-out: Normalized nanoBiT signal): 98%
- remaining activity at 781.3 µM ([2]; Bdf1-SmBiT, Htz1-LgBiT, 0.7813 mM, Fig 4C, read-out: Normalized nanoBiT signal): 99%
- remaining activity at 3125 µM ([2]; Bdf1-SmBiT, Htz1-LgBiT, 3.1250 mM, Fig 4C, read-out: Normalized nanoBiT signal): 98%
- remaining activity ([2]; Bdf1-SmBiT, Htz1-LgBiT, […], Fig 4C, read-out: Normalized nanoBiT signal): 85%
- IC50 ([2]; mean and s.d., 4 independent experiments, read-out: IC50 (μM) (ScBdf1 / H2A.Z) NanoBiT signal): 65 µM
- activity against PDR1 deletion strain versus WT/rescue ([3]; 50 µM (I-BET726 1 µM), 20 h): unaffected
- growth relative to Solvent = 100 (Figure S10B) ([3]; PDR1 Rescue): 76.2272 and 100 and 72.1057
- growth relative to Solvent = 100 (Figure S10B) ([3]; WT): 69.2689 and 72.9849 and 92.6631
- growth relative to Solvent = 100 (Figure S10B) ([3]; pdr1∆): 52.2261 and 60.5623 and 93.6717
- remaining activity at 0.0021 µM ([4]; CauBD1, 24c 0.0021 microM, Exp1-3, read-out: Percent HTRF Signal): 100%
- remaining activity at 0.0052 µM ([4]; CauBD1, 24c 0.0052 microM, Exp1-3, read-out: Percent HTRF Signal): 94.1%
- remaining activity at 0.013 µM ([4]; CauBD1, 24c 0.013 microM, Exp1-3, read-out: Percent HTRF Signal): 99.7%
- remaining activity at 0.033 µM ([4]; CauBD1, 24c 0.033 microM, Exp1-3, read-out: Percent HTRF Signal): 98.7%
- remaining activity at 0.082 µM ([4]; CauBD1, 24c 0.082 microM, Exp1-3, read-out: Percent HTRF Signal): 99.6%
- remaining activity at 0.2 µM ([4]; CauBD1, 24c 0.20 microM, Exp1-3, read-out: Percent HTRF Signal): 104%
- remaining activity at […] ([4]; CauBD1, 24c 0.51 microM, Exp1-3, read-out: Percent HTRF Signal): 96.3%
- remaining activity at 1.28 µM ([4]; CauBD1, 24c 1.28 microM, Exp1-3, read-out: Percent HTRF Signal): 91.7%
- remaining activity at 3.2 µM ([4]; CauBD1, 24c 3.20 microM, Exp1-3, read-out: Percent HTRF Signal): 84.9%
- remaining activity at 8 µM ([4]; CauBD1, 24c 8.00 microM, Exp1-3, read-out: Percent HTRF Signal): 83.4%
- remaining activity at 20 µM ([4]; CauBD1, 24c 20.00 microM, Exp1-3, read-out: Percent HTRF Signal): 64.7%
- inhibition of Bdf1 BD1 from C. auris ([4]; HTRF, Fig S9C): weakly inhibited
- Normalized nanoBiT signal ([5]; 0.1953 (unit uncertain)): 107% and 92% and 96% and 99%
- Normalized nanoBiT signal ([5]; 0.3906 (unit uncertain)): 88% and 99% and 103%
- Normalized nanoBiT signal ([5]; 0.7813 (unit uncertain)): 86% and 104% and 98% and 103%
- Normalized nanoBiT signal ([5]; 1.5625 (unit uncertain)): 100% and 97% and 101%
- Normalized nanoBiT signal ([5]; 3.1250 (unit uncertain)): 93% and 97% (2×) and 103%
- Normalized nanoBiT signal ([5]; 50.0000 (unit uncertain)): 79% and 98% and 101% and 93%
- Normalized nanoBiT signal ([5]; 100.0000 (unit uncertain)): 95% and 97% and 100% and 88%
- inhibition of NanoBiT signal, Bmh1/Bmh2 ([5]; unrelated control pair): not observed
- cytotoxicity toward HeLa cells (MTT) [6]: modest cytotoxicity
- remaining activity at 0.0021 µM ([7]; CauBD2, 24c 0.0021 microM, Exp1-3, read-out: Percent HTRF Signal): 100%
- remaining activity at 0.0052 µM ([7]; CauBD2, 24c 0.0052 microM, Exp1-3, read-out: Percent HTRF Signal): 94.4%
- remaining activity at 0.013 µM ([7]; CauBD2, 24c 0.013 microM, Exp1-3, read-out: Percent HTRF Signal): 99.2%
- remaining activity at 0.033 µM ([7]; CauBD2, 24c 0.033 microM, Exp1-3, read-out: Percent HTRF Signal): 100%
- remaining activity at 0.082 µM ([7]; CauBD2, 24c 0.082 microM, Exp1-3, read-out: Percent HTRF Signal): 106%
- remaining activity at 0.2 µM ([7]; CauBD2, 24c 0.20 microM, Exp1-3, read-out: Percent HTRF Signal): 105%
- remaining activity at […] ([7]; CauBD2, 24c 0.51 microM, Exp1-3, read-out: Percent HTRF Signal): 99.5%
- remaining activity at 1.28 µM ([7]; CauBD2, 24c 1.28 microM, Exp1-3, read-out: Percent HTRF Signal): 100%
- remaining activity at 3.2 µM ([7]; CauBD2, 24c 3.20 microM, Exp1-3, read-out: Percent HTRF Signal): 98.7%
- remaining activity at 8 µM ([7]; CauBD2, 24c 8.00 microM, Exp1-3, read-out: Percent HTRF Signal): 84%
- remaining activity at 20 µM ([7]; CauBD2, 24c 20.00 microM, Exp1-3, read-out: Percent HTRF Signal): 79.1%
- inhibition of Bdf1 BD2 from C. auris ([7]; HTRF, Fig S9C): weakly inhibited

Reference: article PMC11904993, “Humanized Candida and NanoBiT Assays Expedite Discovery of Bdf1 Bromodomain Inhibitors With Antifungal Potential” (Advanced Science, 2025)
